Experimental data from ChEMBL document CHEMBL2034905, “Synthesis of benzimidazolyl-1,3,4-oxadiazol-2ylthio-N-phenyl (benzothiazolyl) acetamides as antibacterial, antifungal and antituberculosis agents” (Eur J Med Chem, 2012).
≈ marks a conversion by molar mass, not a printed value.

What was measured:
[1] = test system: Mycobacterium tuberculosis; assay: Antituberculosis activity against Mycobacterium tuberculosis H37Rv by Lowenstein-Jensen method; format: functional
[2] = test system: Mycobacterium tuberculosis; assay: Antituberculosis activity against Mycobacterium tuberculosis H37Rv at 6.25 ug/ml by Lowenstein-Jensen method; format: functional
[3] = test system: Staphylococcus aureus; assay: Antibacterial activity against Staphylococcus aureus MTCC 96 at 100 ug/disc by paper disc diffusion technique; format: functional; conditions: read-out: IZ
[4] = test system: Bacillus cereus; assay: Antibacterial activity against Bacillus cereus MTCC 430 at 100 ug/disc by paper disc diffusion technique; format: functional; conditions: read-out: IZ
[5] = test system: Escherichia coli; assay: Antibacterial activity against Escherichia coli MTCC 739 at 100 ug/disc by paper disc diffusion technique; format: functional; conditions: read-out: IZ
[6] = test system: Pseudomonas aeruginosa; assay: Antibacterial activity against Pseudomonas aeruginosa MTCC 741 at 100 ug/disc by paper disc diffusion technique; format: functional; conditions: read-out: IZ
[7] = test system: Klebsiella pneumoniae; assay: Antibacterial activity against Klebsiella pneumoniae MTCC 109 at 100 ug/disc by paper disc diffusion technique; format: functional; conditions: read-out: IZ
[8] = test system: Salmonella typhi; assay: Antibacterial activity against Salmonella typhi MTCC 733 at 100 ug/disc by paper disc diffusion technique; format: functional, Salmonella enterica subsp. enterica serovar Typhi; conditions: Salmonella enterica, read-out: IZ
[9] = test system: Proteus vulgaris; assay: Antibacterial activity against Proteus vulgaris MTCC 1771 at 100 ug/disc by paper disc diffusion technique; format: functional; conditions: read-out: IZ
[10] = test system: Shigella flexneri; assay: Antibacterial activity against Shigella flexneri MTCC 1457 at 100 ug/disc by paper disc diffusion technique; format: functional; conditions: read-out: IZ
[11] = test system: Staphylococcus aureus; assay: Antibacterial activity against Staphylococcus aureus MTCC 96 by agar streak dilution method; format: functional
[12] = test system: Bacillus cereus; assay: Antibacterial activity against Bacillus cereus MTCC 430 by agar streak dilution method; format: functional
[13] = test system: Escherichia coli; assay: Antibacterial activity against Escherichia coli MTCC 739 by agar streak dilution method; format: functional
[14] = test system: Pseudomonas aeruginosa; assay: Antibacterial activity against Pseudomonas aeruginosa MTCC 741 by agar streak dilution method; format: functional
[15] = test system: Klebsiella pneumoniae; assay: Antibacterial activity against Klebsiella pneumoniae MTCC 109 by agar streak dilution method; format: functional
[16] = test system: Salmonella typhi; assay: Antibacterial activity against Salmonella typhi MTCC 733 by agar streak dilution method; format: functional, Salmonella enterica subsp. enterica serovar Typhi; conditions: Salmonella enterica
[17] = test system: Proteus vulgaris; assay: Antibacterial activity against Proteus vulgaris MTCC 1771 by agar streak dilution method; format: functional
[18] = test system: Shigella flexneri; assay: Antibacterial activity against Shigella flexneri MTCC 1457 by agar streak dilution method; format: functional
[19] = test system: Aspergillus niger; assay: Antifungal activity against Aspergillus niger MTCC 282 at 100 ug/disc by paper disc diffusion technique; format: functional; conditions: read-out: IZ
[20] = test system: Aspergillus fumigatus; assay: Antifungal activity against Aspergillus fumigatus MTCC 343 at 100 ug/disc by paper disc diffusion technique; format: functional; conditions: read-out: IZ
[21] = test system: Aspergillus clavatus; assay: Antifungal activity against Aspergillus clavatus MTCC 1323 at 100 ug/disc by paper disc diffusion technique; format: functional; conditions: read-out: IZ
[22] = test system: Candida albicans; assay: Antifungal activity against Candida albicans MTCC 183 at 100 ug/disc by paper disc diffusion technique; format: functional; conditions: read-out: IZ
[23] = test system: Aspergillus niger; assay: Antifungal activity against Aspergillus niger MTCC 282 by agar streak dilution method; format: functional
[24] = test system: Aspergillus fumigatus; assay: Antifungal activity against Aspergillus fumigatus MTCC 343 by agar streak dilution method; format: functional
[25] = test system: Aspergillus clavatus; assay: Antifungal activity against Aspergillus clavatus MTCC 1323 by agar streak dilution method; format: functional
[26] = test system: Candida albicans; assay: Antifungal activity against Candida albicans MTCC 183 by agar streak dilution method; format: functional
[27] = test system: Mycobacterium tuberculosis; assay: Antituberculosis activity against Mycobacterium tuberculosis H37Rv by BACTEC MGIT method; format: functional

Structure (SMILES) | MIC [1] [µg/mL] | inhibition at 6.25 µg/mL [2] [%] | zone of inhibition at 100 µg/disc [3] [mm] | zone of inhibition at 100 µg/disc [4] [mm] | zone of inhibition at 100 µg/disc [5] [mm] | zone of inhibition at 100 µg/disc [6] [mm] | zone of inhibition at 100 µg/disc [7] [mm] | zone of inhibition at 100 µg/disc [8] [mm] | zone of inhibition at 100 µg/disc [9] [mm] | zone of inhibition at 100 µg/disc [10] [mm] | MIC [11] [µg/mL] | MIC [12] [µg/mL] | MIC [13] [µg/mL] | MIC [14] [µg/mL] | MIC [15] [µg/mL] | MIC [16] [µg/mL] | MIC [17] [µg/mL] | MIC [18] [µg/mL] | zone of inhibition at 100 µg/disc [19] [mm] | zone of inhibition at 100 µg/disc [20] [mm] | further results
O=C(CSc1nnc(Cn2cnc3ccccc32)o1)Nc1ccccc1 | 500 (≈ 1370 µM) | 95 | 12 | < 10 | 13 | 21 | 13 | < 10 | 13 | 13 | 100 (≈ 274 µM) | 100 (≈ 274 µM) | 100 (≈ 274 µM) | 50 (≈ 137 µM) | 100 (≈ 274 µM) | 100 (≈ 274 µM) | 100 (≈ 274 µM) | 100 (≈ 274 µM) | < 10 | 13 | zone of inhibition at 100 µg/disc [21]: < 10 mm; zone of inhibition at 100 µg/disc [22]: < 10 mm; MIC [23]: 100 µg/mL (≈ 274 µM); MIC [24]: 100 µg/mL (≈ 274 µM); MIC [25]: 100 µg/mL (≈ 274 µM); MIC [26]: 100 µg/mL (≈ 274 µM); MIC [27]: > 6.25 µg/mL
O=C(CSc1nnc(Cn2cnc3ccccc32)o1)Nc1ccc(Cl)cc1 | 25 (≈ 62.5 µM) | 98 | 15 | 11 | 15 | 26 | 21 | 17 | 20 | 22 | 50 (≈ 125 µM) | 50 (≈ 125 µM) | 100 (≈ 250 µM) | 12.5 (≈ 31.3 µM) | 50 (≈ 125 µM) | 100 (≈ 250 µM) | 50 (≈ 125 µM) | 12.5 (≈ 31.3 µM) | < 10 | 16 | zone of inhibition at 100 µg/disc [21]: 14 mm; zone of inhibition at 100 µg/disc [22]: 14 mm; MIC [23]: 100 µg/mL (≈ 250 µM); MIC [24]: 100 µg/mL (≈ 250 µM); MIC [25]: 100 µg/mL (≈ 250 µM); MIC [26]: 100 µg/mL (≈ 250 µM); MIC [27]: > 6.25 µg/mL
O=C(CSc1nnc(Cn2cnc3ccccc32)o1)Nc1ccc(Br)cc1 | 12.5 (≈ 28.1 µM) | 99 | 23 | 26 | 19 | 26 | 22 | 22 | 17 | 22 | 6.25 (≈ 14.1 µM) | 12.5 (≈ 28.1 µM) | 50 (≈ 113 µM) | 12.5 (≈ 28.1 µM) | 50 (≈ 113 µM) | 50 (≈ 113 µM) | 100 (≈ 225 µM) | 25 (≈ 56.3 µM) | 16 | 24 | zone of inhibition at 100 µg/disc [21]: 23 mm; zone of inhibition at 100 µg/disc [22]: 16 mm; MIC [23]: 100 µg/mL (≈ 225 µM); MIC [24]: 25 µg/mL (≈ 56.3 µM); MIC [25]: 50 µg/mL (≈ 113 µM); MIC [26]: 100 µg/mL (≈ 225 µM); MIC [27]: > 6.25 µg/mL
O=C(CSc1nnc(Cn2cnc3ccccc32)o1)Nc1ccc(F)cc1 | 50 (≈ 130 µM) | 97 | 18 | 16 | 18 | 24 | 22 | 21 | 14 | 23 | 25 (≈ 65.2 µM) | 50 (≈ 130 µM) | 50 (≈ 130 µM) | 12.5 (≈ 32.6 µM) | 50 (≈ 130 µM) | 50 (≈ 130 µM) | 50 (≈ 130 µM) | 12.5 (≈ 32.6 µM) | 19 | 23 | zone of inhibition at 100 µg/disc [21]: 17 mm; zone of inhibition at 100 µg/disc [22]: 16 mm; MIC [23]: 50 µg/mL (≈ 130 µM); MIC [24]: 50 µg/mL (≈ 130 µM); MIC [25]: 100 µg/mL (≈ 261 µM); MIC [26]: 100 µg/mL (≈ 261 µM); MIC [27]: > 6.25 µg/mL
O=C(CSc1nnc(Cn2cnc3ccccc32)o1)Nc1ccc(I)cc1 | 250 (≈ 509 µM) | 95 | 17 | 15 | 12 | 22 | 23 | 16 | 22 | 20 | 50 (≈ 102 µM) | 100 (≈ 204 µM) | 100 (≈ 204 µM) | 25 (≈ 50.9 µM) | 50 (≈ 102 µM) | 100 (≈ 204 µM) | 25 (≈ 50.9 µM) | 50 (≈ 102 µM) | < 10 | 17 | zone of inhibition at 100 µg/disc [21]: 13 mm; zone of inhibition at 100 µg/disc [22]: 12 mm; MIC [23]: 100 µg/mL (≈ 204 µM); MIC [24]: 100 µg/mL (≈ 204 µM); MIC [25]: 100 µg/mL (≈ 204 µM); MIC [26]: 100 µg/mL (≈ 204 µM); MIC [27]: > 6.25 µg/mL
